Reference: PubChem BioAssay (NCI)
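Tested at 5 concentrations; 48 h exposure; 96-well plates; endpoints linearly interpolated, else capped at highest concentration. TGI marks complete inhibition of growth.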

Assays:
Test in all cases: NCI tumour cell line growth inhibition, 48 h
HCT-15 colon = tested on: HCT-15 colon
NCI/ADR-RES ovarian = tested on: NCI/ADR-RES ovarian
SK-MEL-2 melanoma = tested on: SK-MEL-2 melanoma
UO-31 renal = tested on: UO-31 renal
OVCAR-3 ovarian = tested on: OVCAR-3 ovarian
UACC-62 melanoma = tested on: UACC-62 melanoma
NCI-H226 lung = tested on: NCI-H226 lung
MALME-3M melanoma = tested on: MALME-3M melanoma
OVCAR-4 ovarian = tested on: OVCAR-4 ovarian
A498 renal = tested on: A498 renal
BT-549 breast = tested on: BT-549 breast
SK-MEL-5 melanoma = tested on: SK-MEL-5 melanoma
HOP-62 NSCLC = tested on: HOP-62 NSCLC
SNB-19 CNS = tested on: SNB-19 CNS
M14 melanoma = tested on: M14 melanoma
SW-620 colon = tested on: SW-620 colon
786-0 renal = tested on: 786-0 renal
UACC-257 melanoma = tested on: UACC-257 melanoma
LOX IMVI melanoma = tested on: LOX IMVI melanoma
COLO 205 colon = tested on: COLO 205 colon
OVCAR-5 ovarian = tested on: OVCAR-5 ovarian
SF-268 CNS = tested on: SF-268 CNS
NCI-H522 lung = tested on: NCI-H522 lung
PC-3 prostate = tested on: PC-3 prostate
HT29 colon = tested on: HT29 colon
HOP-92 NSCLC = tested on: HOP-92 NSCLC
EKVX NSCLC = tested on: EKVX NSCLC
ACHN renal = tested on: ACHN renal
SN12C renal = tested on: SN12C renal
TK-10 renal = tested on: TK-10 renal
SK-OV-3 ovarian = tested on: SK-OV-3 ovarian
SNB-75 CNS = tested on: SNB-75 CNS
NCI-H460 lung = tested on: NCI-H460 lung
OVCAR-8 ovarian = tested on: OVCAR-8 ovarian
HCC-2998 colon = tested on: HCC-2998 colon
DU-145 prostate = tested on: DU-145 prostate
SF-539 CNS = tested on: SF-539 CNS
CAKI-1 renal = tested on: CAKI-1 renal
RXF 393 renal = tested on: RXF 393 renal
NCI-H23 lung = tested on: NCI-H23 lung
T-47D breast = tested on: T-47D breast
MDA-MB-435 = tested on: MDA-MB-435
MCF7 breast = tested on: MCF7 breast
K-562 leukemia = tested on: K-562 leukemia
RPMI-8226 leukemia = tested on: RPMI-8226 leukemia
SF-295 CNS = tested on: SF-295 CNS
MDA-N = tested on: MDA-N
A549 NSCLC = tested on: A549 NSCLC
HCT-116 colon = tested on: HCT-116 colon
MDA-MB-231 breast = tested on: MDA-MB-231 breast
IGROV1 ovarian = tested on: IGROV1 ovarian
MOLT-4 leukemia = tested on: MOLT-4 leukemia
KM12 colon = tested on: KM12 colon
SK-MEL-28 melanoma = tested on: SK-MEL-28 melanoma
U251 CNS = tested on: U251 CNS
CCRF-CEM leukemia = tested on: CCRF-CEM leukemia
SR leukemia = tested on: SR leukemia
HL-60(TB) leukemia = tested on: HL-60(TB) leukemia
HS 578T breast = tested on: HS 578T breast

Work on `CC1(C)C2CC3C(C)(C2)C31c1cc(Cl)ccc1N` (stereo unspecified) yielded a TGI (HCT-15 colon) of 23 µM, a TGI (NCI/ADR-RES ovarian) of 29.5 µM and a TGI (SK-MEL-2 melanoma) of 29.4 µM. It also gave a TGI (UO-31 renal) of 26.8 µM, a TGI (OVCAR-3 ovarian) of 31.2 µM and a TGI (UACC-62 melanoma) of 29.1 µM. It also gave a TGI (NCI-H226 lung) of 34.6 µM, a TGI (MALME-3M melanoma) of 21.3 µM and a TGI (OVCAR-4 ovarian) of 28.6 µM. For the same compound, the TGI (A498 renal) was 31.8 µM, the TGI (BT-549 breast) was 30 µM and the TGI (SK-MEL-5 melanoma) was 27.1 µM. The TGI (HOP-62 NSCLC) was 29.4 µM, the TGI (SNB-19 CNS) was 33.5 µM and the TGI (M14 melanoma) was 24.8 µM. The TGI (SW-620 colon) was 28.2 µM, the TGI (786-0 renal) was 28.6 µM and the TGI (UACC-257 melanoma) was 26.4 µM. It also gave a TGI (LOX IMVI melanoma) of 30.5 µM, a TGI (COLO 205 colon) of 33.2 µM and a TGI (OVCAR-5 ovarian) of 29.4 µM. For the same compound, the TGI (SF-268 CNS) was 28.3 µM, the TGI (NCI-H522 lung) was 19.7 µM and the TGI (PC-3 prostate) was 27 µM. The TGI (HT29 colon) was 27.6 µM, the TGI (HOP-92 NSCLC) was 28.6 µM and the TGI (EKVX NSCLC) was 33 µM. For the same compound, the TGI (ACHN renal) was 29 µM, the TGI (SN12C renal) was 27.5 µM and the TGI (TK-10 renal) was 29.1 µM. For the same compound, the TGI (SK-OV-3 ovarian) was 29 µM, the TGI (SNB-75 CNS) was 24.3 µM and the TGI (NCI-H460 lung) was 28.9 µM. It also gave a TGI (OVCAR-8 ovarian) of 30.3 µM, a TGI (HCC-2998 colon) of 28.2 µM and a TGI (DU-145 prostate) of 27 µM. The TGI (SF-539 CNS) was 32 µM, the TGI (CAKI-1 renal) was 29.1 µM and the TGI (RXF 393 renal) was 22.9 µM. For the same compound, the TGI (NCI-H23 lung) was 26 µM, the TGI (T-47D breast) was 26.2 µM and the TGI (MDA-MB-435) was 25.1 µM. The TGI (MCF7 breast) was 26.7 µM, the TGI (K-562 leukemia) was 23.5 µM and the TGI (RPMI-8226 leukemia) was 30 µM. The TGI (SF-295 CNS) was 28.6 µM, the TGI (MDA-N) was 24.7 µM and the TGI (A549 NSCLC) was 24.2 µM. For the same compound, the TGI (HCT-116 colon) was 17.5 µM, the TGI (MDA-MB-231 breast) was 30 µM and the TGI (IGROV1 ovarian) was 27.6 µM. For the same compound, the TGI (MOLT-4 leukemia) was 22.7 µM, the TGI (KM12 colon) was 28.5 µM and the TGI (SK-MEL-28 melanoma) was 31.3 µM. It also gave a TGI (U251 CNS) of 28.5 µM, a TGI (CCRF-CEM leukemia) of 33.4 µM and a TGI (SR leukemia) of 22 µM.

With `O=C(Nc1ccc(Br)c2ccccc12)c1ccc2ccccc2c1O` the TGI (HCT-15 colon) was 7.1 µM, the TGI (NCI/ADR-RES ovarian) was 12.9 µM and the TGI (SK-MEL-2 melanoma) was 3 µM. For the same compound, the TGI (UO-31 renal) was 12.9 µM, the TGI (OVCAR-3 ovarian) was 35.7 µM and the TGI (UACC-62 melanoma) was 15 µM. The TGI (NCI-H226 lung) was 6.39 µM, the TGI (MALME-3M melanoma) was 9.3 µM and the TGI (OVCAR-4 ovarian) was > 100 µM. The TGI (A498 renal) was 30.8 µM, the TGI (BT-549 breast) was 11.3 µM and the TGI (SK-MEL-5 melanoma) was 3.78 µM. The TGI (HOP-62 NSCLC) was 14.8 µM, the TGI (SNB-19 CNS) was > 100 µM and the TGI (M14 melanoma) was 18.3 µM. The TGI (SW-620 colon) was 14.8 µM, the TGI (786-0 renal) was 15.9 µM and the TGI (UACC-257 melanoma) was 23.9 µM. The TGI (COLO 205 colon) was 5.49 µM, the TGI (OVCAR-5 ovarian) was 12.7 µM and the TGI (SF-268 CNS) was 31.8 µM. It also gave a TGI (NCI-H522 lung) of 6.83 µM, a TGI (PC-3 prostate) of 6.21 µM and a TGI (HT29 colon) of 15.3 µM. For the same compound, the TGI (EKVX NSCLC) was > 100 µM, the TGI (ACHN renal) was > 100 µM and the TGI (SN12C renal) was 24.9 µM. For the same compound, the TGI (TK-10 renal) was 30.3 µM, the TGI (SK-OV-3 ovarian) was 18.6 µM and the TGI (SNB-75 CNS) was 8.68 µM. For the same compound, the TGI (NCI-H460 lung) was 13.1 µM, the TGI (OVCAR-8 ovarian) was 19.2 µM and the TGI (HCC-2998 colon) was 20.9 µM. It also gave a TGI (DU-145 prostate) of 85.4 µM, a TGI (SF-539 CNS) of 24.9 µM and a TGI (CAKI-1 renal) of 25.2 µM. For the same compound, the TGI (HL-60(TB) leukemia) was 88.8 µM, the TGI (NCI-H23 lung) was 10.2 µM and the TGI (HS 578T breast) was 13.5 µM. For the same compound, the TGI (T-47D breast) was 14.5 µM, the TGI (MCF7 breast) was 25.8 µM and the TGI (K-562 leukemia) was > 100 µM. The TGI (SF-295 CNS) was 8.65 µM, the TGI (MDA-N) was 15.6 µM and the TGI (A549 NSCLC) was 11 µM. For the same compound, the TGI (HCT-116 colon) was 11.2 µM, the TGI (MDA-MB-231 breast) was 16.8 µM and the TGI (IGROV1 ovarian) was 16.4 µM. For the same compound, the TGI (MOLT-4 leukemia) was > 100 µM, the TGI (KM12 colon) was 13.7 µM and the TGI (SK-MEL-28 melanoma) was 48.1 µM. The TGI (U251 CNS) was 35.2 µM, the TGI (CCRF-CEM leukemia) was > 100 µM and the TGI (SR leukemia) was > 100 µM.
